Data reported in ChEMBL document CHEMBL1201862, “PubChem BioAssay data set” (2004).
Active and inactive are the calls of the source. Rule as the data show it: actives have a measured IC50 and inactives only a lower limit.

Target: Envelope glycoprotein gp160 (Human immunodeficiency virus 1, UniProt Q6QLK5)
Assay: inhibitors of HIV fusion peptide binding, primary screen, biochemical, uHTS, fluorescence dequenching (AID 1986)

Chain of Envelope glycoprotein gp160 (Q6QLK5 whole entry, the tested form may be a part): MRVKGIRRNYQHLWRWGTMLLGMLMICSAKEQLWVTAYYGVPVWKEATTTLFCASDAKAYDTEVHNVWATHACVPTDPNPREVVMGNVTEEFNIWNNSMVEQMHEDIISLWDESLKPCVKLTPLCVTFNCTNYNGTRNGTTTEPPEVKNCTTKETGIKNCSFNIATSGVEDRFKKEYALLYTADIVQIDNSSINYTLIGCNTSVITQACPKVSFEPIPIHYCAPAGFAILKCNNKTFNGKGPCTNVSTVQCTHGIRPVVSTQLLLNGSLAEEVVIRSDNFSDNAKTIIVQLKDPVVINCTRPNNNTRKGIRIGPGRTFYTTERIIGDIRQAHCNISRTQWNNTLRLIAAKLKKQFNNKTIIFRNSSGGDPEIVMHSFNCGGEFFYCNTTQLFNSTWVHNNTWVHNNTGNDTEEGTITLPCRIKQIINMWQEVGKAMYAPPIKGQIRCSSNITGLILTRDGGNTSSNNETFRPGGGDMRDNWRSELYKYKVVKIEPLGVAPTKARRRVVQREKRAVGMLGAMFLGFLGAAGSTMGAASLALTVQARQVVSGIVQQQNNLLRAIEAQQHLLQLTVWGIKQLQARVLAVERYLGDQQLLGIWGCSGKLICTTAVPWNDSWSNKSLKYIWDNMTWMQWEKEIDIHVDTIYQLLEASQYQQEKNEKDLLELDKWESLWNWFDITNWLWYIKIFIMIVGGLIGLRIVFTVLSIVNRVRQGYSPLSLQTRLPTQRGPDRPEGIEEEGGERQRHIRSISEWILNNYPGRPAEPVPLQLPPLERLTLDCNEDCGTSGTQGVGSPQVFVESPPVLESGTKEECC

Row | Structure (SMILES) | IC50
1 | CC(c1ccccc1)N1C(=O)c2ccc(C(=O)Nc3ccc(Br)cc3C(=O)O)cc2C1=O (configuration not stated) | 14.1 µM (active)
2 | CC(C)(C)c1ccc(S(=O)(=O)/N=C2\C=C(NS(=O)(=O)c3ccccc3)C(=O)c3ccccc32)cc1 | 9.23 µM (active)
